Test system: 349418-098-R tumor spheroid viability
Assay: Anticancer human tumor 349418-098-R patient-derived lung adenocarcinoma cell line growth inhibition
Conditions: spheroids with HUVEC and MSC; for IC50: curve of first compound; for viability, T/C: stronger effect = lower value
Method in brief: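 Complex tumor spheroids combined malignant cells with endothelial cells and mesenchymal stem cells. DNA-damaging drugs and DNA repair inhibitors were tested alone and in combination, at half-log dilutions down from clinical Cmax (top 10 microM if Cmax unknown), 0.25% DMSO final.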

[1] = second compound 0.003 µM, first compound 0.00949 µM
[2] = second compound 0.003 µM, first compound 0.03 µM
[3] = second compound 0.003 µM, first compound 0.0949 µM
[4] = second compound 0.003 µM, first compound 0.3 µM
[5] = second compound 0.003 µM, first compound 0.949 µM
[6] = second compound 0.003 µM, first compound 3 µM
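Further: spheroids exposed to compound for 7 days before measurement.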
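Wherever viability, T/C is given: percent of vehicle control viability with 100% = DMSO-treated spheroids.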

SMILES: Cc1sc2c(c1C)C(c1ccc(Cl)cc1)=NC(CC(=O)Nc1ccc(O)cc1)c1nnc(C)n1-2 (stereo not given) + CC[C@@]1(O)C(=O)OCc2c1cc1n(c2=O)Cc2cc3c(CN(C)C)c(O)ccc3nc2-1
- IC50 (second compound 0.003 µM): 71.4 nM
- IC50 (second compound 0.00949 µM): 69.2 nM
- IC50 (second compound 0.03 µM): 41.6 nM
- IC50 (second compound 0.0949 µM): < 9.49 nM
- IC50 (second compound 0.3 µM): < 9.49 nM
- viability, T/C [1]: 96.2%
- viability, T/C [2]: 83.1%
- viability, T/C [3]: 39.1%
- viability, T/C [4]: 7.85%
- viability, T/C [5]: 0.87%
- viability, T/C [6]: 0.47%
- viability, T/C (second compound 0.00949 µM, first compound 0.00949 µM): 92.4%
- viability, T/C (second compound 0.00949 µM, first compound 0.03 µM): 78.1%
- viability, T/C (second compound 0.00949 µM, first compound 0.0949 µM): 40%
- viability, T/C (second compound 0.00949 µM, first compound 0.3 µM): 6.43%
- viability, T/C (second compound 0.00949 µM, first compound 0.949 µM): 0.61%
- viability, T/C (second compound 0.00949 µM, first compound 3 µM): 0.48%
- viability, T/C (second compound 0.03 µM, first compound 0.00949 µM): 77.9%
- viability, T/C (second compound 0.03 µM, first compound 0.03 µM): 61.7%
- viability, T/C (second compound 0.03 µM, first compound 0.0949 µM): 20.9%
- viability, T/C (second compound 0.03 µM, first compound 0.3 µM): 5.67%
- viability, T/C (second compound 0.03 µM, first compound 0.949 µM): 0.64%
- viability, T/C (second compound 0.03 µM, first compound 3 µM): 0.38%
- viability, T/C (second compound 0.0949 µM, first compound 0.00949 µM): 12.6%
- viability, T/C (second compound 0.0949 µM, first compound 0.03 µM): 16.2%
- viability, T/C (second compound 0.0949 µM, first compound 0.0949 µM): 4.16%
- viability, T/C (second compound 0.0949 µM, first compound 0.3 µM): 1.07%
- viability, T/C (second compound 0.0949 µM, first compound 0.949 µM): 0.3%
- viability, T/C (second compound 0.0949 µM, first compound 3 µM): 0.35%
- viability, T/C (second compound 0.3 µM, first compound 0.00949 µM): 2.78%
- viability, T/C (second compound 0.3 µM, first compound 0.03 µM): 2.56%
- viability, T/C (second compound 0.3 µM, first compound 0.0949 µM): 1.45%
- viability, T/C (second compound 0.3 µM, first compound 0.3 µM): 0.63%
- viability, T/C (second compound 0.3 µM, first compound 0.949 µM): 0.55%
- viability, T/C (second compound 0.3 µM, first compound 3 µM): 0.39%

SMILES: CNCc1ccc(-c2cc(-c3nc(-c4ccc(S(=O)(=O)C(C)C)cc4)cnc3N)on2)cc1 + COc1cc2c(cc1O)CCNC21CSC2c3c(OC(C)=O)c(C)c4c(c3C(COC1=O)N1C(O)C3Cc5cc(C)c(OC)c(O)c5C(C21)N3C)OCO4
- IC50 (second compound 30 pM): 448 nM
- IC50 (second compound 94.9 pM): 202 nM
- IC50 (second compound 0.0003 µM): 162 nM
- IC50 (second compound 0.000949 µM): < 9.49 nM
- IC50 (second compound 0.003 µM): < 9.49 nM
- viability, T/C (second compound 30 pM, first compound 0.00949 µM): 105%
- viability, T/C (second compound 30 pM, first compound 0.03 µM): 91.3%
- viability, T/C (second compound 30 pM, first compound 0.0949 µM): 87.8%
- viability, T/C (second compound 30 pM, first compound 0.3 µM): 69.6%
- viability, T/C (second compound 30 pM, first compound 0.949 µM): 14.5%
- viability, T/C (second compound 30 pM, first compound 3 µM): 5.77%
- viability, T/C (second compound 94.9 pM, first compound 0.00949 µM): 97%
- viability, T/C (second compound 94.9 pM, first compound 0.03 µM): 97.5%
- viability, T/C (second compound 94.9 pM, first compound 0.0949 µM): 85.4%
- viability, T/C (second compound 94.9 pM, first compound 0.3 µM): 31.1%
- viability, T/C (second compound 94.9 pM, first compound 0.949 µM): 10.2%
- viability, T/C (second compound 94.9 pM, first compound 3 µM): 3.32%
- viability, T/C (second compound 0.0003 µM, first compound 0.00949 µM): 91.6%
- viability, T/C (second compound 0.0003 µM, first compound 0.03 µM): 93.5%
- viability, T/C (second compound 0.0003 µM, first compound 0.0949 µM): 79.5%
- viability, T/C (second compound 0.0003 µM, first compound 0.3 µM): 15.6%
- viability, T/C (second compound 0.0003 µM, first compound 0.949 µM): 5.43%
- viability, T/C (second compound 0.0003 µM, first compound 3 µM): 2.26%
- viability, T/C (second compound 0.000949 µM, first compound 0.00949 µM): 0.44%
- viability, T/C (second compound 0.000949 µM, first compound 0.03 µM): 0.78%
- viability, T/C (second compound 0.000949 µM, first compound 0.0949 µM): 0.51%
- viability, T/C (second compound 0.000949 µM, first compound 0.3 µM): 0.68%
- viability, T/C (second compound 0.000949 µM, first compound 0.949 µM): 0.41%
- viability, T/C (second compound 0.000949 µM, first compound 3 µM): 0.11%
- viability, T/C [1]: 1.46%
- viability, T/C [2]: 1.27%
- viability, T/C [3]: 0.93%
- viability, T/C [4]: 1.07%
- viability, T/C [5]: 1.05%
- viability, T/C [6]: 0.22%

Source: PubChem BioAssay AID1845197 (Molecular Pharmacology Branch, DTP, NCI, 2023)
